According to patent US20230053540A1, “TREATMENT OF LIVER INJURY” (Massachusetts Institute of Technology, priority 2019, published 2023):

Tested on: hepatocytes
Assay: Seq-Well scRNA-Seq of hepatocytes after APAP overdose (signature scores, DEG vs untreated)
Assay type: in vivo, mouse
Conditions: A24 vs untreated (UT)

CC(=O)Nc1ccc(O)cc1 [APAP, acetaminophen]
avg_logFC Ces3a: −0.3687 | avg_logFC Ces1d: −0.4289 | avg_logFC Cfh: 0.4009 | avg_logFC Cfi: 0.2516 | avg_logFC Chchd2: −0.3949 | avg_logFC Clpx: −0.4047 | avg_logFC Cltc: 0.4381 | avg_logFC Cmah: 0.3616 | avg_logFC Cmbl: −0.3124 | avg_logFC Cml1: −0.3269 | avg_logFC Cml2: 0.2654 | avg_logFC Copa: 0.3451 | avg_logFC Cox4i1: −0.4542 | avg_logFC Cox5b: −0.3378 | avg_logFC Cox6c: −0.5028 | avg_logFC Cox7a2: −0.3635 | avg_logFC Cp: 0.3174 | avg_logFC Cpb2: 0.3222 | avg_logFC Cps1: 0.3245 | avg_logFC Creld2: 0.6087 | avg_logFC Csad: −0.5313 | avg_logFC Csde1: 0.3269 | avg_logFC Cth: −0.5109 | avg_logFC Ctsc: 0.3004 | avg_logFC Cxcl1: 0.4498 | avg_logFC Cyb5: −0.7048 | avg_logFC Cyb5r3: 0.339 | avg_logFC Cyp4a10: −0.7422 | avg_logFC Dcxr: −0.4107 | avg_logFC Ddt: −0.4224 | avg_logFC Dhcr24: 0.4238 | avg_logFC Dnajc3: 0.4564 | avg_logFC Dnajc12: 0.3221 | avg_logFC Dstn: 0.3243 | avg_logFC Ech1: −0.4291 | avg_logFC Eef1a1: 0.4393 | avg_logFC Eef2: 0.2701 | avg_logFC Efna1: 0.3361 | avg_logFC Egfr: 0.505 | avg_logFC Eif4g1: 0.3108 | avg_logFC Eif4g2: 0.466 | avg_logFC Elovl2: 0.4522 | avg_logFC Elovl3: −0.676 | avg_logFC Ephx2: −0.3693 | avg_logFC Etnk1: 0.3521 | avg_logFC Etnppl: −0.4283 | avg_logFC Fabp2: −0.3922 | avg_logFC Fdx1: −0.3447 | avg_logFC Fga: 0.8285 | avg_logFC Fgb: 0.745 | avg_logFC Fgg: 0.6805 | avg_logFC Fgl1: 0.8649 | avg_logFC Fn1: 0.6996 | avg_logFC Fndc3b: 0.3485 | avg_logFC Fos: 0.432 | avg_logFC Fxyd1: −0.3118 | avg_logFC Gadd45g: −0.614 | avg_logFC Gas5: −0.3362 | avg_logFC Gchfr: −0.3869 | avg_logFC Gjb2: 0.3911 | avg_logFC Glud1: 0.451 | avg_logFC Gm4076: −0.3255 | avg_logFC Gm5096: −0.3631 | avg_logFC Gm13775: −1.032 | avg_logFC Gm15564: 1.821 | avg_logFC Gm24270: 0.268 | avg_logFC Gm24601: 0.9844 | avg_logFC Gm26917: 0.8237 | avg_logFC Gm26924: 1.419 | avg_logFC Gnmt: −0.4604 | avg_logFC Gpx1: −0.508 | avg_logFC Grip2: 0.8779 | avg_logFC Gsta3: −0.6694 | avg_logFC Hamp: −0.8261 | avg_logFC Hao1: 0.323 | avg_logFC Hbb-bs: 1.043 | avg_logFC Hc: 0.3679 | avg_logFC Hdlbp: 0.5651 | avg_logFC Hint1: −0.4737 | avg_logFC Hint2: −0.3702 | avg_logFC Hmgcs2: −0.3173 | avg_logFC Hnf4a: 0.4549 | avg_logFC Hook1: 0.3274 | avg_logFC Hp: 0.4313 | avg_logFC Hpd: −0.3133 | avg_logFC Hs3st3b1: 0.343 | avg_logFC Hsd3b7: −0.3953 | avg_logFC Hsp90b1: 0.5342 | avg_logFC Hspa5: 0.6105 | avg_logFC Hspa8: −0.36 | avg_logFC Hspa13: 0.3548 | avg_logFC Hyou1: 0.8465 | avg_logFC Ibtk: 0.3311 | avg_logFC Igfbp1: −0.3162 | avg_logFC Igfbp2: −0.3451 | avg_logFC Iigp1: 0.4542 | avg_logFC Il6st: 0.3335 | avg_logFC Il13ra1: 0.303 | avg_logFC Inmt: −0.4435 | avg_logFC Insig1: 0.4655 | avg_logFC Ipo7: 0.2592 | avg_logFC Itih2: 0.2987 | avg_logFC Itih3: 0.4929 | avg_logFC Itih4: 0.5251 | avg_logFC Khk: −0.2976 | avg_logFC Kmo: 0.3022 | avg_logFC Kng1: 0.2658 | avg_logFC Lars2: 1.711 | avg_logFC Lman1: 0.2986 | avg_logFC Lpgat1: 0.3946 | avg_logFC Lrg1: 0.4368 | avg_logFC Lrp1: 0.5051 | avg_logFC Lrrc59: 0.3181 | avg_logFC Manf: 0.4689 | avg_logFC Mlec: 0.3246 | avg_logFC Mpc1: −0.2818 | avg_logFC Mtus1: 0.3621 | avg_logFC Mug2: 0.3704 | avg_logFC Mup3: −0.8062 | avg_logFC Mup4: −1.087 | avg_logFC Mup5: −1.371 | avg_logFC Mup6: −1.678 | avg_logFC Mup8: −0.6133 | avg_logFC Mup9: −1.847 | avg_logFC Mup11: −1.611 | avg_logFC Mup13: −0.6949 | avg_logFC Mup15: −1.235 | avg_logFC Mup16: −1.019 | avg_logFC Mup17: −1.8 | avg_logFC Mup18: −1.727 | avg_logFC Mup19: −1.699 | avg_logFC Mup20: −0.2819 | avg_logFC Mup21: −0.6977 | avg_logFC Myh9: 0.6391 | avg_logFC Nab1: 0.3342 | avg_logFC Nars: 0.3532 | avg_logFC Ndufa4: −0.4433 | avg_logFC Ndufb2: −0.3412 | avg_logFC Ndufb4: −0.3251 | avg_logFC Ndufb11: −0.4275 | avg_logFC Ndufs6: −0.3592 | avg_logFC Nedd4: 0.3774 | avg_logFC Nr1d2: 0.4306 | avg_logFC Nr5a2: 0.322 | avg_logFC Oat: −0.5212 | avg_logFC Oaz1: −0.3748 | avg_logFC Orm1: 0.3651 | avg_logFC Orm2: 0.2715 | avg_logFC P4hb: 0.4052 | avg_logFC Pdcd4: 0.4882 | avg_logFC Pdia3: 0.5938 | avg_logFC Pdia4: 0.4882 | avg_logFC Pdia6: 0.3365 | avg_logFC Pgrmc1: 0.3502 | avg_logFC Plg: 0.2617 | avg_logFC Pon1: −0.3227 | avg_logFC Prdx1: −0.2677 | avg_logFC Prg4: 0.4306 | avg_logFC Prkd3: 0.3665 | avg_logFC Pten: 0.3559 | avg_logFC Pzp: 0.416 | avg_logFC Qsox1: 0.3424 | avg_logFC Rab1: 0.3526 | avg_logFC Rdh7: −0.269 | avg_logFC Rdx: 0.3736 | avg_logFC Retsat: −0.3658 | avg_logFC Rnase4: 0.5178 | avg_logFC Rpn1: 0.4124 | avg_logFC Rps2: −0.3845 | avg_logFC Rps27l: −0.5485 | avg_logFC Rrbp1: 0.3069 | avg_logFC Rsp14: −0.2923 | avg_logFC S100a1: −0.3762 | avg_logFC Saa1: 0.5582 | avg_logFC Saa2: 0.9645 | avg_logFC Saa4: 0.3755 | avg_logFC Sar1b: −0.3176 | avg_logFC Sc5d: 0.345 | avg_logFC Scd1: 0.7267 | avg_logFC Sds: −0.407 | avg_logFC Sec61a1: 0.3139 | avg_logFC Sel1l: 0.336 | avg_logFC Selenbp2: −0.3833 | avg_logFC Sephs2: 0.89 | avg_logFC Sepp1: 0.4486 | avg_logFC Serp1: 0.3124 | avg_logFC Serpina1a: −0.6752 | avg_logFC Serpina1b: −0.3018 | avg_logFC Serpina1c: −0.4026 | avg_logFC Serpina1e: −0.2843 | avg_logFC Serpina3c: −0.4089 | avg_logFC Serpina3n: 0.4137 | avg_logFC Serpina10: 0.565 | avg_logFC Serpina1d: −0.494 | avg_logFC Slc3a1: 0.341 | avg_logFC Slc7a2: 0.3526 | avg_logFC Slc38a4: 0.2637 | avg_logFC Snord118: 0.3914 | avg_logFC Sod1: −0.3036 | avg_logFC Sparcl1: −0.2536 | avg_logFC Spcs3: 0.3942 | avg_logFC Ssr1: 0.3278
